Data published in PMC8800111 (The Journal of Biological Chemistry, 2021).

How the values were obtained:
[1] = biological target: proteins of U3A human fibrosarcoma cells (4462 proteins detected) (Homo sapiens, UniProt O14646); format: cell-based; conditions: protein CHD1, U3A cells
[2] = biological target: proteins of U3A human fibrosarcoma cells (4462 proteins detected) (Homo sapiens, UniProt O43402); format: cell-based; conditions: protein EMC8; soluble abundance after heat, U3A cells
[3] = biological target: proteins of U3A human fibrosarcoma cells (4462 proteins detected) (Homo sapiens, UniProt O75116); format: cell-based; conditions: protein ROCK2; U3A cells
[4] = biological target: proteins of U3A human fibrosarcoma cells (4462 proteins detected) (Homo sapiens, UniProt O75976); format: cell-based; conditions: protein CPD; soluble abundance after heat, U3A cells
[5] = biological target: proteins of U3A human fibrosarcoma cells (4462 proteins detected) (Homo sapiens, UniProt O94992); format: cell-based; conditions: protein HEXIM1, U3A cells
Sequence of proteins of U3A human fibrosarcoma cells (4462 proteins detected) (Homo sapiens, UniProt O94992) (O94992 whole entry): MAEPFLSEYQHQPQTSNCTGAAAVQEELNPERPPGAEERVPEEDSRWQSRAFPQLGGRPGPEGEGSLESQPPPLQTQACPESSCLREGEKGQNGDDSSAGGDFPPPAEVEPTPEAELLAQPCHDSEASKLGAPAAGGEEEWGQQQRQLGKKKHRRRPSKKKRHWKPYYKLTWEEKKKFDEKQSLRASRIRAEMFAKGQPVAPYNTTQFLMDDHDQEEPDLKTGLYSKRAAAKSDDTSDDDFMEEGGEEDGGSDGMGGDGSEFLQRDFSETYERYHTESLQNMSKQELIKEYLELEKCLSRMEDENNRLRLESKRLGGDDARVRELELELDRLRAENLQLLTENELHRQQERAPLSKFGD

[6] = biological target: proteins of U3A human fibrosarcoma cells (4462 proteins detected) (Homo sapiens, UniProt O95292); format: cell-based; conditions: protein VAPB; U3A cells
Sequence of proteins of U3A human fibrosarcoma cells (4462 proteins detected) (Homo sapiens, UniProt O95292) (O95292 whole entry): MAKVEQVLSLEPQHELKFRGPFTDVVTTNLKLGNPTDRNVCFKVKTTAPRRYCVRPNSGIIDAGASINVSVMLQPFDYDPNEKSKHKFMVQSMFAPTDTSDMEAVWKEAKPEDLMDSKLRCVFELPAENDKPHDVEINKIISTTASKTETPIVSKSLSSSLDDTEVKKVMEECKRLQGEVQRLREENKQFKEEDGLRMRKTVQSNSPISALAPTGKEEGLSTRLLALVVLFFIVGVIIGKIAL

[7] = biological target: proteins of U3A human fibrosarcoma cells (4462 proteins detected) (Homo sapiens, UniProt O95456); format: cell-based; conditions: protein PSMG1, U3A cells
Sequence of proteins of U3A human fibrosarcoma cells (4462 proteins detected) (Homo sapiens, UniProt O95456) (O95456 whole entry): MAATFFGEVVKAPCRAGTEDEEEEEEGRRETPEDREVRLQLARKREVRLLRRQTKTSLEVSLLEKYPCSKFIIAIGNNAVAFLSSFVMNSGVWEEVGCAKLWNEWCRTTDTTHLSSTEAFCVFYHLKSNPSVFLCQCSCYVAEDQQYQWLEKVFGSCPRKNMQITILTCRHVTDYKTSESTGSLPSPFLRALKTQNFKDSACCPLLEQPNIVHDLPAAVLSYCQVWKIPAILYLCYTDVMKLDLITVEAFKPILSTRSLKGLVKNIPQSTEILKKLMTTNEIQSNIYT

[8] = biological target: proteins of U3A human fibrosarcoma cells (4462 proteins detected) (Homo sapiens, UniProt P15586); format: cell-based; conditions: protein GNS, U3A cells
[9] = biological target: proteins of U3A human fibrosarcoma cells (4462 proteins detected) (Homo sapiens, UniProt P26038); format: cell-based; conditions: protein MSN, U3A cells
Sequence of proteins of U3A human fibrosarcoma cells (4462 proteins detected) (Homo sapiens, UniProt P26038) (P26038 whole entry): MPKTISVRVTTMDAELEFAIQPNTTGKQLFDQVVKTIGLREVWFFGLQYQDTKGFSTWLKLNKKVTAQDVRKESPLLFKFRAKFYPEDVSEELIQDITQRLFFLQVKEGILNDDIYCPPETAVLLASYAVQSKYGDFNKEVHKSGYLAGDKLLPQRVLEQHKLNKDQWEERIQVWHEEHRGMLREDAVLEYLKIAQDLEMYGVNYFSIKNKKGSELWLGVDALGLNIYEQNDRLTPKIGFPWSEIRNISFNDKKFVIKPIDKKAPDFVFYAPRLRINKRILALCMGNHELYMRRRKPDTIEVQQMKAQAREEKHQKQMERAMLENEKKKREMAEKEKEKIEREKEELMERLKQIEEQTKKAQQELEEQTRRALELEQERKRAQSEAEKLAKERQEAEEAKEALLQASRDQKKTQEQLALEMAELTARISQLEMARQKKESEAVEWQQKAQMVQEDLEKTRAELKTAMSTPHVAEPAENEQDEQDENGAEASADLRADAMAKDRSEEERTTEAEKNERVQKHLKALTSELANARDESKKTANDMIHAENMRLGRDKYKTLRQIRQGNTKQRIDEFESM

[10] = biological target: proteins of U3A human fibrosarcoma cells (4462 proteins detected) (Homo sapiens, UniProt P35790); format: cell-based; conditions: protein CHKA; U3A, 10 μM, 2 h
Sequence of proteins of U3A human fibrosarcoma cells (4462 proteins detected) (Homo sapiens, UniProt P35790) (P35790 whole entry): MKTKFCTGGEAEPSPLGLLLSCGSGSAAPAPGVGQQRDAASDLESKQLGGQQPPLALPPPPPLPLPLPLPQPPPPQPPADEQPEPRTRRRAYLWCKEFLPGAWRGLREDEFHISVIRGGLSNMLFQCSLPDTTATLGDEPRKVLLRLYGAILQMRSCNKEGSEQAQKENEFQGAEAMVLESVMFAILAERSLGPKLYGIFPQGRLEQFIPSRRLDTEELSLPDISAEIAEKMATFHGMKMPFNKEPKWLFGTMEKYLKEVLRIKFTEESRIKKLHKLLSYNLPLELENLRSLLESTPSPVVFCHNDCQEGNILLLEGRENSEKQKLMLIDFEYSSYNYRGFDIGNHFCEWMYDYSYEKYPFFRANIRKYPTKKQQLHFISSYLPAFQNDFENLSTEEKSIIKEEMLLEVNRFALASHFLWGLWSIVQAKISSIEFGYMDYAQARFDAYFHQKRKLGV

[11] = biological target: proteins of U3A human fibrosarcoma cells (4462 proteins detected) (Homo sapiens, UniProt P38432); format: cell-based; conditions: protein COIL; soluble abundance after heat, U3A cells
[12] = biological target: proteins of U3A human fibrosarcoma cells (4462 proteins detected) (Homo sapiens, UniProt P48643); format: cell-based; conditions: protein CCT5; U3A cells
[13] = biological target: proteins of U3A human fibrosarcoma cells (4462 proteins detected) (Homo sapiens, UniProt P50542); format: cell-based; conditions: protein PEX5, U3A cells
[14] = biological target: proteins of U3A human fibrosarcoma cells (4462 proteins detected) (Homo sapiens, UniProt P52294); format: cell-based; conditions: protein KPNA1; U3A cells
[15] = biological target: proteins of U3A human fibrosarcoma cells (4462 proteins detected) (Homo sapiens, UniProt Q16774); format: cell-based; conditions: protein GUK1; U3A, 10 μM, 2 h
[16] = biological target: proteins of U3A human fibrosarcoma cells (4462 proteins detected) (Homo sapiens, UniProt Q8IW35); format: cell-based; conditions: protein CEP97; U3A, 10 μM, 2 h
[17] = biological target: proteins of U3A human fibrosarcoma cells (4462 proteins detected) (Homo sapiens, UniProt Q8IWX8); format: cell-based; conditions: protein CHERP; soluble abundance after heat, U3A cells
Sequence of proteins of U3A human fibrosarcoma cells (4462 proteins detected) (Homo sapiens, UniProt Q8IWX8) (Q8IWX8 whole entry): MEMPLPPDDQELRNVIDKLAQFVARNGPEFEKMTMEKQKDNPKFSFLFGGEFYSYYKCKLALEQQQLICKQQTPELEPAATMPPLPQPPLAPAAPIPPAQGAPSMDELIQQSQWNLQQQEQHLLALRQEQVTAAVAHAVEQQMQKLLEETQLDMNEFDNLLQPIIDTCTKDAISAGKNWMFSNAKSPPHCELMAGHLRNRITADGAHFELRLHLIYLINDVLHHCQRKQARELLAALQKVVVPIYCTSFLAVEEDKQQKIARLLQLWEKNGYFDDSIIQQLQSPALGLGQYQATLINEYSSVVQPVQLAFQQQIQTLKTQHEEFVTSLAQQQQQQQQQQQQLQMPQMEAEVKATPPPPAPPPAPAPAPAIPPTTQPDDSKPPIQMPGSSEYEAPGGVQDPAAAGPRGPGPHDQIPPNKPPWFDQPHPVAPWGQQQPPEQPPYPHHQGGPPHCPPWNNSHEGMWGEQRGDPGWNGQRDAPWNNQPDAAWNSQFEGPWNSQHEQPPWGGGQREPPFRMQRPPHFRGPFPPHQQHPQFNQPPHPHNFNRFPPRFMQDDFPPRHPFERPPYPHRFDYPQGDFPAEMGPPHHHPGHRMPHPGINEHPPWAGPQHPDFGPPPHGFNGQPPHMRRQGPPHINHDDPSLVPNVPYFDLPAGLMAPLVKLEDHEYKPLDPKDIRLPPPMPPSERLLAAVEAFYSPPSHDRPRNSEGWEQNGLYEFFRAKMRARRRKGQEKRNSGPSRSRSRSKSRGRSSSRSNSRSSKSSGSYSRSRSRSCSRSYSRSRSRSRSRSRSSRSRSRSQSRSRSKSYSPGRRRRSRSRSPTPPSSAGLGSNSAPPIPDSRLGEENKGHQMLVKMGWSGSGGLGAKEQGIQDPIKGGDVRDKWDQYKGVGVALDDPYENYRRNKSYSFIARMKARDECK

[18] = biological target: proteins of U3A human fibrosarcoma cells (4462 proteins detected) (Homo sapiens, UniProt Q8TDP1); format: cell-based; conditions: protein RNASEH2C, U3A cells
Sequence of proteins of U3A human fibrosarcoma cells (4462 proteins detected) (Homo sapiens, UniProt Q8TDP1) (Q8TDP1 whole entry): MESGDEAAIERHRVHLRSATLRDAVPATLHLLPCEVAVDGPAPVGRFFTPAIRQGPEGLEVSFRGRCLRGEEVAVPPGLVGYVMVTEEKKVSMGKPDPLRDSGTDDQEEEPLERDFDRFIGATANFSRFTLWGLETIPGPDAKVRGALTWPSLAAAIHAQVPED

[19] = biological target: proteins of U3A human fibrosarcoma cells (4462 proteins detected) (Homo sapiens, UniProt Q92585); format: cell-based; conditions: protein MAML1, U3A cells
[20] = biological target: proteins of U3A human fibrosarcoma cells (4462 proteins detected) (Homo sapiens, UniProt Q96FZ2); format: cell-based; conditions: protein HMCES, U3A cells
[21] = biological target: proteins of U3A human fibrosarcoma cells (4462 proteins detected) (Homo sapiens, UniProt Q9H3H3); format: cell-based; conditions: protein C11orf68; soluble abundance after heat, U3A cells
[22] = biological target: proteins of U3A human fibrosarcoma cells (4462 proteins detected) (Homo sapiens, UniProt Q9H900); format: cell-based; conditions: protein ZWILCH; U3A cells
Sequence of proteins of U3A human fibrosarcoma cells (4462 proteins detected) (Homo sapiens, UniProt Q9H900) (Q9H900 whole entry): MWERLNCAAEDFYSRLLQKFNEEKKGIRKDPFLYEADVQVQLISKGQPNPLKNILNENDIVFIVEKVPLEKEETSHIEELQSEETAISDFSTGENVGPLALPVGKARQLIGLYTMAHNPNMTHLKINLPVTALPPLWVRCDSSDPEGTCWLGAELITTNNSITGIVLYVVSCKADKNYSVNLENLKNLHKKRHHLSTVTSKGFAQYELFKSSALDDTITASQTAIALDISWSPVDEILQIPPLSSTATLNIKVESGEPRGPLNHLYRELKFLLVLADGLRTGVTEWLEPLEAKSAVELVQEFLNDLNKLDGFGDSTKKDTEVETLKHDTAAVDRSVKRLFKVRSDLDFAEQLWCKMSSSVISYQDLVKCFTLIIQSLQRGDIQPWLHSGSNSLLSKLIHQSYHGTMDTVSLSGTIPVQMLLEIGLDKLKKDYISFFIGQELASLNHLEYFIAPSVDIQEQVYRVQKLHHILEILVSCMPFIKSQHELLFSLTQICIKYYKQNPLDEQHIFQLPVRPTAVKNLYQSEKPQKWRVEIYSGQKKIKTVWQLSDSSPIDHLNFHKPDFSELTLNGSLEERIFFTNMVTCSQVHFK

[23] = biological target: proteins of U3A human fibrosarcoma cells (4462 proteins detected) (Homo sapiens, UniProt Q9HCD5); format: cell-based; conditions: protein NCOA5; U3A cells
Sequence of proteins of U3A human fibrosarcoma cells (4462 proteins detected) (Homo sapiens, UniProt Q9HCD5) (Q9HCD5 whole entry): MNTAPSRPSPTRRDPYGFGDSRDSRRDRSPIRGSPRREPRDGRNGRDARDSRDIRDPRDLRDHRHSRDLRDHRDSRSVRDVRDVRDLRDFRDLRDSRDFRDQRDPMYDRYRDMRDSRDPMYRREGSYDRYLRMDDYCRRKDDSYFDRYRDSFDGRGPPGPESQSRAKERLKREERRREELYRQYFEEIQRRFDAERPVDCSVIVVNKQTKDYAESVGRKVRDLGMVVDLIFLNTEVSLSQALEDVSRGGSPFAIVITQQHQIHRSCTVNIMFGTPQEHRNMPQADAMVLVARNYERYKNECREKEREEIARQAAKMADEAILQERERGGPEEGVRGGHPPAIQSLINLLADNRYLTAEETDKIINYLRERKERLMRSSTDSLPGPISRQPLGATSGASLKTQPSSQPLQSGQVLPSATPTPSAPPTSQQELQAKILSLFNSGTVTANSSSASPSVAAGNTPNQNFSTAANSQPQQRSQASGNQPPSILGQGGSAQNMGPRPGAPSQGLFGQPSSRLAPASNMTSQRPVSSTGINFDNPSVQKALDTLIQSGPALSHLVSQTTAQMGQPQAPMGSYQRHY

[24] = biological target: proteins of U3A human fibrosarcoma cells (4462 proteins detected) (Homo sapiens, UniProt Q9NVZ3); format: cell-based; conditions: protein NECAP2; U3A cells
Sequence of proteins of U3A human fibrosarcoma cells (4462 proteins detected) (Homo sapiens, UniProt Q9NVZ3) (Q9NVZ3 whole entry): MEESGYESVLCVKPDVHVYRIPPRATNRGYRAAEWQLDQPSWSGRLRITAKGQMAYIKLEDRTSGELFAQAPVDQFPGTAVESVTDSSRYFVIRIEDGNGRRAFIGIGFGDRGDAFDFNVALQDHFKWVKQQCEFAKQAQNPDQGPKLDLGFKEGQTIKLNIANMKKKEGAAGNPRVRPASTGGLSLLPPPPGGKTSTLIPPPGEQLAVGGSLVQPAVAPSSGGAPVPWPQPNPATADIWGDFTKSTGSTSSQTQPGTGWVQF

[25] = biological target: proteins of U3A human fibrosarcoma cells (4462 proteins detected) (Homo sapiens, UniProt Q9P0K7); format: cell-based; conditions: protein RAI14; soluble abundance after heat, U3A cells
[26] = biological target: proteins of U3A human fibrosarcoma cells (4462 proteins detected) (Homo sapiens, UniProt Q9UMS4); format: cell-based; conditions: protein PRPF19; U3A cells
Sequence of proteins of U3A human fibrosarcoma cells (4462 proteins detected) (Homo sapiens, UniProt Q9UMS4) (Q9UMS4 whole entry): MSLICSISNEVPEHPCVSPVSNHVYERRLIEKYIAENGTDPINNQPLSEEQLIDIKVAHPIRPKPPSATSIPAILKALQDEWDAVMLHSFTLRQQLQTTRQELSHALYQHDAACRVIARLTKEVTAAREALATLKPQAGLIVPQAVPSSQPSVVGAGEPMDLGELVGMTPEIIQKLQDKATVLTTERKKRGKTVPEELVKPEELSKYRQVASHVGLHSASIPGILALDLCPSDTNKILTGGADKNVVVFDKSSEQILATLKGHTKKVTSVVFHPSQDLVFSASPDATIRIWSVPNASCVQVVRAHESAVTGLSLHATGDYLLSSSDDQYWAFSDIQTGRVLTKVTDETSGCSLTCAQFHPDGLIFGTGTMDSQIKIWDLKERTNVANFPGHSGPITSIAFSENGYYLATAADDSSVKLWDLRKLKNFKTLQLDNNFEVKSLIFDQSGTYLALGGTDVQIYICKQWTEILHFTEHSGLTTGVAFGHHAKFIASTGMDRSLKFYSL

[27] = biological target: proteins of U3A human fibrosarcoma cells (4462 proteins detected) (Homo sapiens, UniProt Q9Y399); format: cell-based; conditions: protein MRPS2; U3A, 10 μM, 2 h
U3A cells = assay: Cellular ATP levels (CellTiter-Glo); format: cell-based, human; conditions: 10 μM, 6 h
[28] = set-up: method as in printed; conditions: patients taking this drug for months at a time; ref not given; cited from earlier work
physchem = conditions: DHFR enzymatic assay medium with 5% DMSO, 37 °C, aqueous with cosolvent or surfactant or cyclodextrin, kinetic from dmso stock

For `CCc1nc(N)nc(N)c1-c1ccc(Cl)cc1` [pyrimethamine], the “Log2 (PYR/DMSO)” value [1] was -0.04, the “Log2 (PYR/DMSO)” value [2] was 0.15 and the “Log2 (PYR/DMSO)” value [3] was 0.17. The “Log2 (PYR/DMSO)” value [4] was 0.14, the “Log2 (PYR/DMSO)” value [5] was -0.04 and the “Log2 (PYR/DMSO)” value [6] was 0.19. For the same molecule, the “Log2 (PYR/DMSO)” value [7] was -0.05, the “Log2 (PYR/DMSO)” value [8] was -0.04 and the “Log2 (PYR/DMSO)” value [9] was -0.04. The “Log2 (PYR/DMSO), CHKA” value [10] was 0.24, the “Log2 (PYR/DMSO)” value [11] was 0.15 and the “Log2 (PYR/DMSO)” value [12] was 0.19. For the same molecule, the “Log2 (PYR/DMSO)” value [13] was -0.03, the “Log2 (PYR/DMSO)” value [14] was 0.17 and the “Log2 (PYR/DMSO), GUK1” value [15] was -0.14. The “Log2 (PYR/DMSO), CEP97” value [16] was -0.20, the “Log2 (PYR/DMSO)” value [17] was 0.14 and the “Log2 (PYR/DMSO)” value [18] was -0.03. For the same molecule, the “Log2 (PYR/DMSO)” value [19] was -0.04, the “Log2 (PYR/DMSO)” value [20] was -0.04 and the “Log2 (PYR/DMSO)” value [21] was 0.14. For the same molecule, the “Log2 (PYR/DMSO)” value [22] was 0.22, the “Log2 (PYR/DMSO)” value [23] was 0.17 and the “Log2 (PYR/DMSO)” value [24] was 0.21. For the same molecule, the “Log2 (PYR/DMSO)” value [25] was 0.15, the “Log2 (PYR/DMSO)” value [26] was 0.17 and the “Log2 (PYR/DMSO), MRPS2” value [27] was 0.25. For the same molecule, the “reduction of cellular ATP levels” value (U3A cells) was “about 75%”, the “concentration routinely achieved in the serum of patients” value [28] was 10 µM and the solubility (physchem) was greater than 1000 µM.
